For one molecule, RSA results are on record in ChEMBL document CHEMBL1132232, “7alpha-Iodo and 7alpha-fluoro steroids as androgen receptor-mediated imaging agents” (J Med Chem, 1999).

This assay deals with T1, Androgen receptor (Homo sapiens) (UniProt P10275).
T1 sequence (whole entry): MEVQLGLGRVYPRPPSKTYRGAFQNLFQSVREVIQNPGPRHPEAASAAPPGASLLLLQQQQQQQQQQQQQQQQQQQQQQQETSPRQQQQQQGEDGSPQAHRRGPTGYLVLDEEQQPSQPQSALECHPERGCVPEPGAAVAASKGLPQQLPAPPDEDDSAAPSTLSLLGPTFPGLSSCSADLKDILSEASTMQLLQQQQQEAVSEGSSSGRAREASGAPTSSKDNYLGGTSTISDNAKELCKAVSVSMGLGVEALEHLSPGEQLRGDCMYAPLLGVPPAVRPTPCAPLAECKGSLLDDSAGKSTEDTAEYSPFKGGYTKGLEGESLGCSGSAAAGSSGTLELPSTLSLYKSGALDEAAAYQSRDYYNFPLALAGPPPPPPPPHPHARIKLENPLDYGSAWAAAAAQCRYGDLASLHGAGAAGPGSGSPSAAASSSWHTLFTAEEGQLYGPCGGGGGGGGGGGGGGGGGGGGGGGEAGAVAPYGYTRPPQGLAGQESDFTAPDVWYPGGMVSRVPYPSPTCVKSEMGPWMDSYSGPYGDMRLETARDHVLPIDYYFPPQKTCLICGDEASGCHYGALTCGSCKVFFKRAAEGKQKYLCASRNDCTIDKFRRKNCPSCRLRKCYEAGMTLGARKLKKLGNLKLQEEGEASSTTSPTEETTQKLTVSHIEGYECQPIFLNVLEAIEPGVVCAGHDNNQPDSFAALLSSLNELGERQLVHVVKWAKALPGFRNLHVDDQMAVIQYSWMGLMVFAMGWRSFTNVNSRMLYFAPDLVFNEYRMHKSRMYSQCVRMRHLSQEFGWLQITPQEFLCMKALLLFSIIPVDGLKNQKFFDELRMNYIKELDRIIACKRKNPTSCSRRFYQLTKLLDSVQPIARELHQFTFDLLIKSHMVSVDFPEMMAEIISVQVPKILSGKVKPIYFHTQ
Particulars: CV-1.

Description: Relative stimulatory activity compared to 5-alpha-DHT in CV-1 cells expressing androgen receptor

Molecule `CC12CC[C@@H]3C4CCC(=O)CC4C[C@@H](I)[C@H]3[C@@H]1CCC2O` (stereo partly specified) showed an RSA of 13.
